Molecules are shown by their SMILES. The source made the active and inactive calls. How the calls were made is not given here.

One may read the IC50 as the midpoint of a concentration-inhibition curve.

This assay addresses methionyl-tRNA synthetase (Trypanosoma brucei brucei). The assay can be described thus: inhibition of trypanosomal methionyl-tRNA synthetase – biochemical, luminescence, dose response, round 3, late-stage follow-up (AID 1053132). The conditions noted are these: recombinant T. brucei MetRS, luminescence (ATP consumption).
Take `CCN(CC)C(=O)C(=O)c1cn(CC(=O)Nc2cc(Oc3ccccc3)cc(C(F)(F)F)c2)c2ccccc12`: the IC50 was 58.1 nM.
The same measure for `CCN(CC)C(=O)C(=O)c1cn(CCNc2cc(Oc3ccccc3)cc(C(F)(F)F)c2)c2ccccc12`: “inactive”.
The same measure for `Nc1c(Cl)ncnc1Nc1ccc(C(=O)O)cc1`: 2540 nM.
Consider `O=C(Cc1ccc(Nc2nc3ccc(Br)cc3[nH]2)cc1)NCCc1cccs1`, for which the IC50 result is “inactive”.
The same measure for `CCN(CC)C(=O)C(=O)c1cn(CC(=O)Nc2cc(Oc3ccc(OC)cc3)cc(C(F)(F)F)c2)c2ccccc12`: 168 nM.
The same measure for `O=C(Cn1cc(C(=O)C(=O)NCc2ccccc2)c2ccccc21)Nc1cc(Oc2ccccc2)cc(C(F)(F)F)c1`: “inactive”.
In the case of `CCN(CC)C(=O)C(=O)c1cn(CC(=O)Nc2cc(Oc3ccccc3F)cc(C(F)(F)F)c2)c2ccccc12`, the IC50 is 133 nM.
The same measure for `CCN(CC)C(=O)C(=O)c1cn(CCNc2cccc(C(F)(F)F)c2)c2ccccc12`: > 119000 nM (inactive).
Turning to `CCN(CC)C(=O)C(=O)c1cn(CC(=O)Nc2cc(Oc3ccc(F)cc3)cc(C(F)(F)F)c2)c2ccccc12`, the IC50 was 188 nM.
Consider `CCN(CC)C(=O)Cc1cn(CC(=O)Nc2cccc(C(F)(F)F)c2)c2ccccc12`, for which the IC50 is > 119000 nM (inactive).
The same measure for `CCN(CC)C(=O)C(=O)c1cn(CC(=O)Nc2cccc(C(F)(F)F)c2)c2ccccc12`: 128 nM.
`CCN(CC)C(=O)C(=O)c1cn(CC(=O)Nc2cc(Oc3ccccc3OC)cc(C(F)(F)F)c2)c2ccccc12`: the half-maximal inhibitory concentration (IC50) is 161 nM.

The values are drawn from PubChem BioAssay AID1053132 (The Scripps Research Institute Molecular Screening Center, 2014).
